In US20100056570A1, “FUNGICIDES” (Syngenta Crop Protection, Inc., priority 2006, published 2010) one finds melting point data, which are given here for six compounds.

The melting point is the temperature, or range, at which the solid turns liquid. In turn, `CSC(Oc1cc2cc(I)cnc2cc1F)C(=O)NC(C)(C)C` (stereo not drawn) [12 (7), 2-(3-iodo-7-fluoro-quinolin-6-yloxy)-N-tert-butyl-2-methylsulfanyl-acetamide] came in with a melting point of 165 to 166 °C.
Then `CSC(Oc1cc2cc(Br)cnc2cc1F)C(=O)NC(C)(C)C` (stereo not drawn) [12 (6), 2-(3-Bromo-7-fluoro-quinolin-6-yloxy)-N-tert-butyl-2-methylsulfanyl-acetamide], with 144 to 145 °C; and `COCC#CC(C)(C)NC(=O)C(C)(S)Oc1cc2cc(-c3ccsc3)cnc2cc1F` (stereo not drawn) [251 (30), 2-(7-Fluoro-3-thiophen-3-yl-quinolin-6-yloxy)-N-(4-methoxy-1,1-dimethyl-but-2-ynyl)-2-methyl-sulfanyl-acetamide], with 132 to 134 °C; and `CSC(Oc1cc2cc(Br)cnc2cc1C)C(=O)NC(C)(C)C` (stereo not drawn) [12 (13), 2-(3-Bromo-7-methyl-quinolin-6-yloxy)-N-tert-butyl-2-methylsulfanyl-acetamide], with 132 to 134 °C.
Compound `CSC(Oc1cc2cc(-c3ccsc3)cnc2cc1F)C(=O)NC(C)(C)C` (stereo not drawn) [12 (30), N-tert-butyl-2-(7-fluoro-3-thiophen-3-yl-quinolin-6-yloxy)-2-methylsulfanyl-acetamide] displayed a melting point of 170 to 173 °C.
With `CSC(Oc1cc2cc(Br)cnc2cc1Cl)C(=O)NC(C)(C)C` (stereo not drawn) [12 (2), 2-(3-Bromo-7-chloro-quinolin-6-yloxy)-N-tert-butyl-2-methylsulfanyl-acetamide] the figure was 172 to 174 °C.
